Data on one compound can be found in US6596518B2, “Percyquinnin, a process for its production and its use as a pharmaceutical” (Aventis Pharma Deutschland GmbH, priority 2000, dated 2003).

A short description of the data set: Solubility (physico-chemical properties, Table 1). In kind it is physicochemical. The following applies: solvents in which the compound is soluble.

In the case of `CC(C)=CCC12C(=O)OC1CC=C2CO` (stereo not shown) [Percyquinnin], the Solubility result is reported as “Methanol, DMSO”.
